Measurements as given in US6642205B2, “Methods and compositions for reducing side effects in chemotherapeutic treatments” (Pro-Pharmaceuticals, Inc., priority 2000, dated 2003).

Experiments:
[1] = tested on: lymphocyte leukemia P-388; assay: Antitumor effect on subcutaneously implanted lymphocyte leukemia P-388 in mice, single i.v. injection; format: in vivo, male BDF1 mice; details: for Average weight gain/loss from day 1 to day 7 / Nonspecific deaths per group / Average survival time, excluding nonspecific deaths / Average survival time, including nonspecific deaths / average weight loss of an animal: single i.v.; for Nonspecific deaths per group / animals that lived longer than the duration of the study (20 days): six animals per group; for Average survival time, excluding nonspecific deaths / Average survival time, including nonspecific deaths: study duration 20 days; for toxicity compared to Adriamycin: tumor-bearing mice, nonspecific deaths
Description: “Nonspecific death” is death of a treated tumor-bearing animal if its day of death was statistically less (P≦0.05) than the corresponding day of death of a tumor-bearing animal in the untreated control group.
The response of subcutaneously implanted lymphocyte leukemia P-388 (Arthur D. Little Inc., Cambridge, Mass.) to treatment with a Galactomycin I, Galactomycin II, and Doxorubicin was evaluated in male BDF1 mice.
(§1) Mice were acclimated in the laboratory one week prior to experimentation. The animals were housed five per cage in a 12-hour light/dark cycle. The animals received filtered water and sterile rodent food ad libitum. The animals were observed daily and clinical signs were noted. Weight of the animals was in the range of 19-21 g at the day of treatment initiation. The mice were healthy, not previously used in other experimental procedures.
There were a total of twelve groups, 10 animals in two control groups (saline only), and six animals in each in 10 agent treatment groups. The groups were treated 24 hours after tumor implantation, as follows:
Tumor cells were implanted in a sub-cutaneous injection of one million cells per mouse and allowed to grow for 24 hours. After that, Adriamycin, Galactomycin I and Galactomycin II were administered as 0.7-10 mg/mL solutions by a single i.v. injection.
Study duration was twenty days after tumor implantation, or nineteen days after treatment initiation.

[2] = Side effects (deaths) after single dose intravenous injection in healthy mice, 20 days observation; format: in vivo, male BDF1 mice; details: for Deaths per group / Life span after treatment (except survived animals): single i.v.; for Deaths per group: six animals each; for Life span after treatment (except survived animals): one value per dead animal; for toxicity compared to Adriamycin: healthy mice, single i.v. dose
Text: as §1, with “Male BDF1 mice were used as the experimental animals for measuring side effects of therapeutic preparations. Mice” for “Mice”

| Compound | Average weight gain/loss from day 1 to day 7 ([1]; dose 7 mg/kg) | Nonspecific deaths per group ([1]; dose 7 mg/kg) | Average survival time, excluding nonspecific deaths ([1]; dose 7 mg/kg) | Average survival time, including nonspecific deaths ([1]; dose 7 mg/kg) | Average weight gain/loss from day 1 to day 7 ([1]; dose 14 mg/kg) | Average survival time, excluding nonspecific deaths ([1]; dose 14 mg/kg) | Average survival time, including nonspecific deaths ([1]; dose 14 mg/kg) | Nonspecific deaths per group ([1]; dose 14 mg/kg) | Average weight gain/loss from day 1 to day 7 ([1]; dose 40 mg/kg) | Average survival time, excluding nonspecific deaths ([1]; dose 40 mg/kg) | Average survival time, including nonspecific deaths ([1]; dose 40 mg/kg) | toxicity compared to Adriamycin [1] | Deaths per group ([2]; dose 15 mg/kg) | Deaths per group ([2]; dose 20 mg/kg) | Deaths per group ([2]; dose 25 mg/kg) | Deaths per group ([2]; dose 30 mg/kg) | Deaths per group ([2]; dose 40 mg/kg) | Deaths per group ([2]; dose 80 mg/kg) | Deaths per group ([2]; dose 100 mg/kg) | toxicity compared to Adriamycin [2] | other results |
| --- | --- | --- | --- | --- | --- | --- | --- | --- | --- | --- | --- | --- | --- | --- | --- | --- | --- | --- | --- | --- | --- |
| COc1cccc2c1C(=O)c1c(O)c3c(c(O)c1C2=O)C[C@@](O)(C(=O)CO)C[C@@H]3O[C@H]1C[C@H](N)[C@H](O)[C@H](C)O1 [Adriamycin, 14-hydroxydaunomycin, reference compound] | -0.5 g | 0 | 15.5 days | 15.5 days | -1.8 g | >19 days | > 15 days |  |  |  |  |  |  |  |  |  |  |  |  |  | average weight loss of an animal ([1]; dose 14 mg/kg): 1.8 g; animals that lived longer than the duration of the study (20 days) ([1]; dose 14 mg/kg): two; Deaths per group ([2]; dose 21 mg/kg): Three; Deaths per group ([2]; dose 21 mg/kg, listed as Doxorubicin): 3; LD50 at 20 days ([2]; male, BDF1, mouse, in vivo, intravenous, 21 mg/kg, single injection in mice, read-out: LD50 (estimated from Table 2 data)): ~21 mg/kg |
| COc1cccc2c1C(=O)c1c(O)c3c(c(O)c1C2=O)CC(O)(C(=O)CO)CC3OC1CC(NCC(O)C(O)C(O)C(O)COC2OC(CO)C(O)C(O)C2O)C(O)C(C)O1 [Galactomycin I, N-[α-D-galactopyranosyl-(1→6)-β-O-D-sorbityl]doxorubicin] | +1.7 g | 0 | 11.7 days | 11.7 days | +2.3 g | 12.2 days | 12.2 days | 0 | -0.9 g | >18 days | > 16 days | significantly less toxic | 0 | 0 | 0 | 0 | 1 | 6 | 6 | significantly less toxic | Average weight gain/loss from day 1 to day 7 ([1]; dose 20 mg/kg): -0.8 g; Nonspecific deaths per group ([1]; dose 20 mg/kg): 0; Average survival time, excluding nonspecific deaths ([1]; dose 20 mg/kg): 16.3 days; Average survival time, including nonspecific deaths ([1]; dose 20 mg/kg): 16.3 days; average weight loss of an animal ([1]; dose 40 mg/kg): 0.9 g; animals that lived longer than the duration of the study (20 days) ([1]; dose 40 mg/kg): two; Deaths per group ([2]; dose 10 mg/kg): 0; Life span after treatment (except survived animals) ([2]; dose 40 mg/kg): 2 days; LD50 (estimated from Table 2 data) ([2]; single injection in mice): 50 to 60 mg/kg |
| Br.COc1cccc2c1C(=O)c1c(O)c3c(c(O)c1C2=O)CC(O)(C(=O)CO)CC3OC1CC(NCC(O)C(O)C(OC2OC(CO)C(O)C(O)C2O)C(O)CO)C(O)C(C)O1 [Galactomycin II, N-[β-D-galactopyranosyl-(1→4)-β-O-D-sorbityl]doxorubicin] | +4.3 g | 0 | 11.7 days | 11.7 days | +0.8 g | 12.0 days | 12.0 days | 0 | -1.1 g | 15.0 days | 15.0 days | significantly less toxic | 0 | 0 | 0 | 0 | 0 | 1 | 3 | significantly less toxic | Nonspecific deaths per group ([1]; dose 40 mg/kg): 0; Average weight gain/loss from day 1 to day 7 ([1]; dose 80 mg/kg): -1.0 g; average weight loss of an animal ([1]; dose 80 mg/kg): 1.0 g; Average survival time, excluding nonspecific deaths ([1]; dose 80 mg/kg): >18 days; Average survival time, including nonspecific deaths ([1]; dose 80 mg/kg): > 16 days; animals that lived longer than the duration of the study (20 days) ([1]; dose 80 mg/kg): two; Deaths per group ([2]; dose 50 mg/kg): 0; Life span after treatment (except survived animals) ([2]; dose 80 mg/kg): 2 days; LD50 (estimated from Table 2 data) ([2]; single injection in mice): ~100 mg/kg |
